Tests used:
HeLa = assay: Antitumor activity against human HeLa cells xenografted in mouse model assessed as tumor growth inhibition at 20 mg/kg treated for 10 days relative to control; assay type: functional; parameters: scale not given: the % may be the effect or the level left; conditions: time 10 day
CAL-27 = assay: Inhibition of cell proliferation in human CAL-27 cells at 1uM incubated for 72 hrs by MTT assay relative to control; assay type: functional

SMILES | Activity (HeLa) [%] | inhibition at 1 µM (CAL-27) [%]
CCOCCNC(=O)/C(C)=C\C[C@@]12OC(C)(C)[C@@H]3C[C@@H](C=C4C(=O)c5c(O)c(C/C=C(\C)CCC=C(C)C)c(O)c(CC=C(C)C)c5O[C@]431)C2=O | 70 | –
NCC(=O)CCC(=O)O [AMINOLEVULINIC ACID] | – | 75.4
